In brackets after ≈: the same amount, converted by molar mass.
Test system: not listed separately
Test: physchem
Type: physicochemical
Conditions: Table S2; n-octanol/PBS pH 7.4; incubation 1
Experimental: Determination of Distribution Coefficient (LogD, pH 7.4) […]
n-octanol – phosphate buffered saline (PBS), pH 7.4. Distribution coefficient (or LogD) is a […]
Phosphate buffered saline, tablet (Sigma-Aldrich, USA; Cat # P4417)
Acetic acid (Enamine, Ukraine.)
DMSO stock solutions of the test compounds 10mM
Gradient HPLC system (Shimadzu, Japan)
MTR22 Multi Mix Rotator (UNICO, USA)
Laboratory Centrifuge, Sigma 4-15C, Qiagen (SIGMA GmbH, Germany) […]
allowed to mix in a rotator for 1 h at 30 rpm. Phase separation was assured by centrifugation for […]
dilution. The samples (both phases) were analyzed using a HPLC system coupled with a tandem mass spectrometer. Mebendazole was used as a reference compound. […]
where: SO – peak area of the analyte in octanol phase
S P – peak area of the analyte in PBS buffer do – dilution coefficient for octanol phase dp – dilution coefficient for aqueous phase
For `Cn1cc(C(=O)N[C@@H]2[C@@H]3CC[C@@]2(c2cc(F)c(F)c(F)c2)C3)c(C(F)F)n1` (relative stereo) [Compound 28], the “D (partition ratio), incubation 1” value was 3.24E+04.

Same assay, conditions: Table S2; n-octanol/PBS pH 7.4; incubation 2
In the case of `Cn1cc(C(=O)N[C@@H]2[C@@H]3CC[C@@]2(c2cc(F)c(F)c(F)c2)C3)c(C(F)F)n1` (relative stereo) [Compound 28], the “D (partition ratio), incubation 2” value is reported as 2.00E+04.

Same assay, conditions: Table S2; n-octanol/PBS pH 7.4; incubation 3
In the case of `Cn1cc(C(=O)N[C@@H]2[C@@H]3CC[C@@]2(c2cc(F)c(F)c(F)c2)C3)c(C(F)F)n1` (relative stereo) [Compound 28], the “D (partition ratio), incubation 3” value is reported as 1.32E+04.

Same assay, conditions: pH 7.4, LogD, pH 7.4 (mean)
`Cn1cc(C(=O)N[C@@H]2[C@@H]3CC[C@@]2(c2cc(F)c(F)c(F)c2)C3)c(C(F)F)n1` (relative stereo) [Compound 28] gave a logD at 1 h of 4.32.

Same assay, conditions: pH 7.4, LogD, pH 7.4, incubation 1
Work on `Cn1cc(C(=O)N[C@@H]2[C@@H]3CC[C@@]2(c2cc(F)c(F)c(F)c2)C3)c(C(F)F)n1` (relative stereo) [Compound 28] yielded a logD at 1 h of 4.51.

Same assay, conditions: pH 7.4, LogD, pH 7.4, incubation 3
For `Cn1cc(C(=O)N[C@@H]2[C@@H]3CC[C@@]2(c2cc(F)c(F)c(F)c2)C3)c(C(F)F)n1` (relative stereo) [Compound 28], the logD at 1 h was 4.12.

Same assay, conditions: pH 7.4, logD (7.4)
In the case of `Cn1cc(C(=O)N[C@@H]2[C@@H]3CC[C@@]2(c2cc(F)c(F)c(F)c2)C3)c(C(F)F)n1` (relative stereo) [Compound 28], the logD at 1 h is reported as 4.3.

Test system: not listed separately
Test: Metabolic stability in human liver microsomes
Type: in vitro ADME
Conditions: both sexes, human, liver microsomes, pH 7.4, human liver microsomes, 2 μM, 37 °C, with NADPH; 7 min
Experimental: (§1) The data acquisition and system control was performed using Analyst 1.6.3 software from AB Sciex. Methods Microsomal incubations were carried out in 96-well plates in 5 aliquots of 30 μL each (one for each time point). […] In the control reactions the NADPH-cofactor system was substituted with phosphate buffer. […] Each reaction was performed in duplicates. Five time points over 40 minutes were analyzed. The reactions were stopped by adding 4 volumes of methanol containing internal standard to incubation aliquots, followed by protein sedimentation by centrifuging at 5500 rpm for 4 minutes. […]. Supernatants were analyzed using the HPLC system coupled with tandem mass spectrometer. […] In some cases, the last time point is excluded from the calculations to ensure acceptable logarithmic linearity of decay.
In the case of `Cn1cc(C(=O)N[C@@H]2[C@@H]3CC[C@@]2(c2cc(F)c(F)c(F)c2)C3)c(C(F)F)n1` (relative stereo) [Compound 28], the remaining at […], 2 µM is reported as 78%.

Same assay, conditions: both sexes, human, liver microsomes, pH 7.4, human liver microsomes, 2 μM, 37 °C, with NADPH; 15 min
With `Cn1cc(C(=O)N[C@@H]2[C@@H]3CC[C@@]2(c2cc(F)c(F)c(F)c2)C3)c(C(F)F)n1` (relative stereo) [Compound 28] the remaining at […], 2 µM was 72%.

Same assay, conditions: both sexes, human, liver microsomes, pH 7.4, human liver microsomes, 2 μM, 37 °C, with NADPH; 25 min; read-out: % Remaining, Mean of 2
For `Cn1cc(C(=O)N[C@@H]2[C@@H]3CC[C@@]2(c2cc(F)c(F)c(F)c2)C3)c(C(F)F)n1` (relative stereo) [Compound 28], the remaining at 25 min, 2 µM was 57%.

Same assay, conditions: both sexes, human, liver microsomes, pH 7.4, human liver microsomes, 2 μM, 37 °C, with NADPH; 40 min; read-out: % Remaining, Mean of 2
Work on `Cn1cc(C(=O)N[C@@H]2[C@@H]3CC[C@@]2(c2cc(F)c(F)c(F)c2)C3)c(C(F)F)n1` (relative stereo) [Compound 28] yielded a remaining at 40 min, 2 µM of 55%.

Same assay, conditions: both sexes, human, liver microsomes, pH 7.4, human liver microsomes, 0.42 mg protein per ml; Table S3; * approximate due to high stability; read-out: Clint
`Cn1cc(C(=O)N[C@@H]2[C@@H]3CC[C@@]2(c2cc(F)c(F)c(F)c2)C3)c(C(F)F)n1` (relative stereo) [Compound 28] showed a microsomal CLint at 2 µM of 35 µL/min/mg.

Same assay, conditions: both sexes, human, liver microsomes, pH 7.4, human liver microsomes; * approximate due to high stability; read-out: t1/2
For `Cn1cc(C(=O)N[C@@H]2[C@@H]3CC[C@@]2(c2cc(F)c(F)c(F)c2)C3)c(C(F)F)n1` (relative stereo) [Compound 28], the half-life at 2 µM was 47.4 min.

Same assay, conditions: both sexes, pH 7.4; human liver microsomes, no NADPH cofactor; 40 min; ** instability partially or completely not determined by CYP450 activity; read-out: % Remaining without cofactor, Mean of 2
For `Cn1cc(C(=O)N[C@@H]2[C@@H]3CC[C@@]2(c2cc(F)c(F)c(F)c2)C3)c(C(F)F)n1` (relative stereo) [Compound 28], the remaining at 40 min, 2 µM was 99%.

Same assay, conditions: both sexes, pH 7.4; human liver microsomes; elimination constant; * approximate due to high stability; read-out: kel (converted)
`Cn1cc(C(=O)N[C@@H]2[C@@H]3CC[C@@]2(c2cc(F)c(F)c(F)c2)C3)c(C(F)F)n1` (relative stereo) [Compound 28] showed a k el at 2 µM of 0.00025 s⁻¹.

Test system: human liver microsomes
Test: Metabolic stability in human liver microsomes
Type: in vitro ADME
Conditions: human liver microsomes
Experimental: as §1
For `Cn1cc(C(=O)N[C@@H]2[C@@H]3CC[C@@]2(c2cc(F)c(F)c(F)c2)C3)c(C(F)F)n1` (relative stereo) [Compound 28], the CIint, intrinsic clearance was 35 µL/min/mg.

Test system: Fusarium oxysporum
Test: Antifungal susceptibility testing (MIC, CLSI M38-A2 microdilution)
Type: cell-based
Conditions: Fig. 4e
Experimental: (§2) page 252: Antifungal susceptibility testing (determination of MIC values) The antifungal susceptibility tests were performed according to the Clinical and Laboratory Standards Institute (CLSI) […]-A2 protocol for mycelial fungi (1). Stock solutions were prepared by dissolving an appropriate amount of testing compounds in DMSO. Solutions of test compounds were added to the wells of a 96-well polystyrene microtiter plate (Colstar, USA) in the concentration range from 0.5 to 0.001 mg/mL. Mycelium growth was monitored photometrically at 490 nm by measuring the optical density of each well. Measurements were carried out two times: immediately after adding all components (RPMI 1640 broth, conidial suspension, test compound solutions) and after incubation plate at 26 °C for 48 h (2). MICs were the lowest testing compound concentrations that produced partial growth inhibition (50% of optical density relative to the control without testing compounds). The tests were performed in triplicate Results : Table S6. The MIC values of Fluxapyroxad , Boscalid , and their saturated analogues against Fusarium oxysporum , and Fusarium verticillioides Antifungal compaunds MIC, mg/mL Fusarium oxysporum Fusarium verticillioides Fluxapyroxad -* 0.250 Analogue (±)- 28 0.125 0.125 […] of 0.063 mg/mL. […]
`Cn1cc(C(=O)N[C@@H]2[C@@H]3CC[C@@]2(c2cc(F)c(F)c(F)c2)C3)c(C(F)F)n1` (relative stereo) [Compound 28] showed an MIC of 125 mg/L (≈ 324 µM).

Same assay, conditions: Table S6, lowest concentration giving 50% of optical density relative to control, 26 °C, 48 h
`Cn1cc(C(=O)N[C@@H]2[C@@H]3CC[C@@]2(c2cc(F)c(F)c(F)c2)C3)c(C(F)F)n1` (relative stereo) [Compound 28] showed an MIC of 125 mg/L (≈ 324 µM).

Test system: Fusarium verticillioides
Test: as above
Type: cell-based
Conditions: Fusarium verticillioides, 48 h, Table S6; lowest concentration giving 50% of optical density relative to control; 26 °C, 48 h; read-out: MIC
Experimental: as §2
With `Cn1cc(C(=O)N[C@@H]2[C@@H]3CC[C@@]2(c2cc(F)c(F)c(F)c2)C3)c(C(F)F)n1` (relative stereo) [Compound 28] the MIC was 125 mg/L (≈ 324 µM).

Same assay, conditions: Fusarium verticillioides, Fig. 4e; read-out: MIC
`Cn1cc(C(=O)N[C@@H]2[C@@H]3CC[C@@]2(c2cc(F)c(F)c(F)c2)C3)c(C(F)F)n1` (relative stereo) [Compound 28] gave an MIC of 125 mg/L (≈ 324 µM).
